Results: article PMC9516381 (Biochemistry and Biophysics Reports, 2022)
Like-named read-outs stand apart in the source and are kept apart here.

Legend:
h2E2 anti-cocaine mAb [1] = experiment: Isothermal titration calorimetry; format: binding; conditions: ITC, PBS, 20°C, mean ± SD of 4 experiments; for ΔG: calculated as ΔG = ΔH – TΔS; for Kd: reciprocal of fitted K
h2E2 anti-cocaine mAb [2] = conditions: intrinsic fluorescence quenching, 20 °C, TBS buffer; cited from earlier work
mAb08 anti-cocaine mAb = conditions: ITC; cited from earlier work
h2E2 Fc fragment = h2E2 Fc fragment (Homo sapiens, UniProt P01857); experiment: ITC of ligand binding to h2E2 Fc fragment; conditions: PBS pH 7.4, 20°C
h2E2 Fc fragment, sequence (P01857 1-330 isoform P01857-1): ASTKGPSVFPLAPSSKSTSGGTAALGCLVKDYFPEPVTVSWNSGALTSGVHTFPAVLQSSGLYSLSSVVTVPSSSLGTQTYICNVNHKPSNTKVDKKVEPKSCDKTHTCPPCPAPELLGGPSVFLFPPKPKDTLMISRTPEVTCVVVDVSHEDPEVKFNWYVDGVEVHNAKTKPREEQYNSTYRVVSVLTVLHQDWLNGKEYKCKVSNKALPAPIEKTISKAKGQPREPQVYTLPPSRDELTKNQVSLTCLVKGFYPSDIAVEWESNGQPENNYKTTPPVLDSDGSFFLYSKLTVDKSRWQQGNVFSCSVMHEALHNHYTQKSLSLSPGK

Row | Compound | ΔG (h2E2 anti-cocaine mAb [1]) [kcal/mol] | K (association) (h2E2 anti-cocaine mAb [1]) [M⁻¹] | ΔH (h2E2 anti-cocaine mAb [1]) [kcal/mol] | ΔS (h2E2 anti-cocaine mAb [1]) [cal/mol/deg] | ΔH (h2E2 anti-cocaine mAb [1]; listed as benzoylecgonine) | Kd (h2E2 anti-cocaine mAb [1]) [nM] | Kd (h2E2 anti-cocaine mAb [2]) [nM] | Kd (mAb08 anti-cocaine mAb) [nM] | ΔH (h2E2 anti-cocaine mAb [1]; listed as cocaine) | Kd (h2E2 anti-cocaine mAb [1]; listed as cocaine) [nM] | binding to the Fc fragment (h2E2 Fc fragment)
1 | CN1[C@H]2CC[C@@H]1[C@@H](C(=O)O)[C@@H](OC(=O)c1ccccc1)C2 [Benzoylecgonine, benzoylecgonine] | -9.755 ± 0.106 | 1.88e+07 ± 3.26e+06 | -15.44 ± 0.833 | −19.4 ± 2.5 | ≈ -15,400 cal/mol | 54.4 ± 8.77 | ~20 | – | – | – | –
2 | CCOC(=O)[C@@H]1C2CCC(C[C@@H]1OC(=O)c1ccccc1)N2C (stereo partly drawn) [Cocaethylene, cocaethylene] | -11.152 ± 0.302 | 2.31e+08 ± 1.3e+08 | -13.988 ± 0.279 | −9.67 ± 1.98 | – | 5.29 ± 2.4 | ~1 | – | – | – | –
3 | COC(=O)[C@H]1[C@@H](OC(=O)c2ccccc2)C[C@@H]2CC[C@H]1N2C [Cocaine, cocaine] | -10.881 ± 0.187 | 1.33e+08 ± 4.54e+07 | -15.41 ± 0.368 | −15.4 ± 1.8 | – | 8.13 ± 2.37 | ~4 | 2.5 | ≈ -15,400 cal/mol | ~8 | –
4 | COC(=O)[C@@H]1[C@H]2CC[C@@H](C[C@@H]1O)N2C [Ecgonine Methyl Ester, ecgonine methyl ester] | -6.381 ± 0.247 | 61375 ± 25024 | -2.336 ± 0.452 | 13.80 ± 2.33 | – | 18700 ± 8310 | – | – | – | – | no EME binding to the Fc fragment
5 | COC(=O)[C@H]1[C@@H](OC(=O)c2ccccc2)C[C@@H]2CC[C@H]1N2 [Norcocaine, norcocaine] | -7.85 ± 0.027 | 704500 ± 36098 | -3.064 ± 0.15 | 16.3 ± 0.58 | – | 1420 ± 72 | – | – | – | – | –
